Data on two substances can be found in patent publication US20050003371A1, “Modified nucleotides and methods of labeling nucleic acids” (Stratagene, priority 2002, published 2005).

“Also recorded” adds a separate entry of the source.

Test [1] deals with T1, terminal deoxynucleotide transferase (TdT) (Bos taurus, UniProt P06526).
T1 construct: purchased Stratagene (La Jolla, Calif.)
The test is described as follows: Tailing / 3'-end labeling of a 12-mer oligonucleotide with terminal transferase (Procedure 1). In kind it is biochemical. The conditions noted are these: for number of contiguous modified bases added to the 3' terminus: TdT-catalyzed end labeling. On the procedure: A 12-mer oligonucleotide (5′-[…]-3′; SEQ ID NO: 1) was 5′ labeled with ^32P ATP and T4 Polynucleotide Kinase according to established methods (Roychoudhury and Wu, 1980; Sambrook, Fritch, and Maniatis, 1989). Aliquots of the mixture containing 10 ng of kinased oligo were combined with 100 pmol of fluorescein 12-dUTP and 5 units of terminal deoxynucleotide transferase (TdT) in 100 mM potassium cacodylate, 2 mM CoCl2, pH 7.2 (final volume of 10 μL). […] The reactions were quenched by the addition of loading dye and 4 μL aliquots were loaded onto a sequencing gel (14″×17″, poured with 20% acrylamide/7M urea/1×TBE), electrophoresed for 3 hours at 55 watts/[…] and exposed to X-ray film.

The target in test [2] is T2, Taq DNA polymerase (Thermus aquaticus, UniProt P19821).
T2 construct: purchased Stratagene (La Jolla, Calif.)
The test is described as follows: Polymerase primer extension assay, 12-mer primer/18-mer template (Procedure 2). The conditions noted are these: template with maximum four dTTP/dUTP sites. In kind it is biochemical. On the procedure:
(§1) Aliquots containing 10 ng of the kinased 12-mer described in procedure 1 were combined with 40 ng of an 18-mer oligonucleotide (5′-[…]-3′; SEQ ID NO: 2) in 8 μL of T-7 buffer (20 mM MgCl2, 50 mM NaCl, 40 mM Tris, pH 7.5) or Klenow buffer (5 mM MgCl2, 4 mM DTT, 35 mM Tris, pH 7.5). To each reaction was added 1 μL of a solution containing 100 μM each of dATP and fluorescein 12-dUTP. The reaction contents were heated to 95° C. for 2 minutes and allowed to cool to room temperature. Five units (1 μL) of the appropriate polymerase were added and the reaction mixtures were incubated at 37° C. for 10 minutes. Control reactions were run which contained no polymerase. Polymerase activity was terminated by addition of 3 μL of 1M EDTA and the extension products were separated by electrophoresis using a 20% acrylamide gel and the results visualized by autoradiography. A measurement of the degree of polymerase-catalyzed primer extension obtained in the presence of modified nucleotide analogs according to the invention can be determined by substituting the modified nucleotide (1 μL of 100 μM) for fluorescein 12-dUTP in procedure 2.

Test [3] addresses T3, Klenow polymerase (Escherichia coli, UniProt P00582).
T3 construct: Incorporation results using SAc-dUTP and the Klenow fragment of DNA polymerase I following Procedure 3
The test is described as follows: Polymerase primer extension assay (Procedure 2). In kind it is biochemical, E. coli. The conditions noted are these: Procedure 2, results not shown. On the procedure: as §1

In test [4] the target is T7 DNA polymerase (Escherichia phage T7, UniProt P00581). The conditions noted are these: Procedure 2; for incorporation into DNA by T7 DNA polymerase in primer extension: template with maximum four dTTP/dUTP sites. On the procedure: as §1
For test [5], the system named is exonuclease free Klenow polymerase. To be noted: Procedure 2, results not shown. On the procedure: as §1

T2 sequence (P19821 whole entry): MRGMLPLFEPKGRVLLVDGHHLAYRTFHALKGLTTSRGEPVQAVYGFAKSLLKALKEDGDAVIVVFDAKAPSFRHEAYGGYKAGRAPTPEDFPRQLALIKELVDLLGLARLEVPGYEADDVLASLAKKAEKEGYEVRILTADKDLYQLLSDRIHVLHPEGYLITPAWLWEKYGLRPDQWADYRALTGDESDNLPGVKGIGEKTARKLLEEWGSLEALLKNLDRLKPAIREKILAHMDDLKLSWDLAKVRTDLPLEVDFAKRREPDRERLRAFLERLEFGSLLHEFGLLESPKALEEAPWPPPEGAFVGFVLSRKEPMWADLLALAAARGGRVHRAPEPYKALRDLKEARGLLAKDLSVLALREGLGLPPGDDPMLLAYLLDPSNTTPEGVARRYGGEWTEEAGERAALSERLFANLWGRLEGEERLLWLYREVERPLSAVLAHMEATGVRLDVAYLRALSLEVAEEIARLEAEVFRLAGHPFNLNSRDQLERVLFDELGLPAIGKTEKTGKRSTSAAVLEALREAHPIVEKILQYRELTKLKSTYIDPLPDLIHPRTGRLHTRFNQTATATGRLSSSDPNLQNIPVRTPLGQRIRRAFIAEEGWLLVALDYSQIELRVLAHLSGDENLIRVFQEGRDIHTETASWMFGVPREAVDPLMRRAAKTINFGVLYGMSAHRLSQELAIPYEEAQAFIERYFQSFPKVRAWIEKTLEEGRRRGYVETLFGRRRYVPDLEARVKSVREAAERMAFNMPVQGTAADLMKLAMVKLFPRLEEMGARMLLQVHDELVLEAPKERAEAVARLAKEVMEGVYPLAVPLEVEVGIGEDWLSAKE
T1 sequence (P06526 whole entry): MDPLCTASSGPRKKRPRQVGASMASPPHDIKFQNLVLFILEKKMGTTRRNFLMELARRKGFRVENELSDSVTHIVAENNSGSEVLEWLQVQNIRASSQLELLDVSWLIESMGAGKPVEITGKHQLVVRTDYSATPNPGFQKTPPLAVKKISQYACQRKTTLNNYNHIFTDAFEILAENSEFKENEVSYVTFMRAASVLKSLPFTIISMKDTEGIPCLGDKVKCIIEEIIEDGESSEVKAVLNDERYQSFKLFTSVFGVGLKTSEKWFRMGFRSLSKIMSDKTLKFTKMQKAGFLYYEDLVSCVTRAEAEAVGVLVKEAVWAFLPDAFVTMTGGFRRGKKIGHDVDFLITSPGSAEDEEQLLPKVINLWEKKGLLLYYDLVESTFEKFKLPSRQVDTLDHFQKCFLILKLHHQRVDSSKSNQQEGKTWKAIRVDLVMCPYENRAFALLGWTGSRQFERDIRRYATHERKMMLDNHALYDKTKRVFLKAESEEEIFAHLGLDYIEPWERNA
Chain of T7 DNA polymerase (P00581 whole entry): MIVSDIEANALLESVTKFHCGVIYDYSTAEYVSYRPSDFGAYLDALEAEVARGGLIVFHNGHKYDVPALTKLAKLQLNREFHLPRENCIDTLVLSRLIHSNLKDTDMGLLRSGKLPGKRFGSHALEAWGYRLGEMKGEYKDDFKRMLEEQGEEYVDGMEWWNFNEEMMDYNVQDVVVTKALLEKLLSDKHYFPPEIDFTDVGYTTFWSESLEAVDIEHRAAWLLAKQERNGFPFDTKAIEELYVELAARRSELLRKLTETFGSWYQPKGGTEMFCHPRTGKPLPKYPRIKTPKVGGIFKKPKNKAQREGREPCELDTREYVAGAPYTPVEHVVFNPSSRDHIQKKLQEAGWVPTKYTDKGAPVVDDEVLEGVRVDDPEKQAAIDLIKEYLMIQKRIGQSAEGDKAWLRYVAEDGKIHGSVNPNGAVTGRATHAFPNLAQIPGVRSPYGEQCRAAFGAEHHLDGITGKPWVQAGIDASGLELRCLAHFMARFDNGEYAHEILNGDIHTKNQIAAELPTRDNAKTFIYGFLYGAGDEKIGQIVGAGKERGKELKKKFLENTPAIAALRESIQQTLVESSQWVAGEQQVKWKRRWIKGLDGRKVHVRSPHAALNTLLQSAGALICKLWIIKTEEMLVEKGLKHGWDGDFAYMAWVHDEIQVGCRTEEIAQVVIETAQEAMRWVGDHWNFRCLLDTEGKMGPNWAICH
Chain of T7 DNA polymerase (P0AA25 2-109, further chain): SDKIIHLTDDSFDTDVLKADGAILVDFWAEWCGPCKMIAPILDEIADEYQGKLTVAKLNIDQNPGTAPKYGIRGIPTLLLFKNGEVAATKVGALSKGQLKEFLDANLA
T3 sequence (P00582 324-928): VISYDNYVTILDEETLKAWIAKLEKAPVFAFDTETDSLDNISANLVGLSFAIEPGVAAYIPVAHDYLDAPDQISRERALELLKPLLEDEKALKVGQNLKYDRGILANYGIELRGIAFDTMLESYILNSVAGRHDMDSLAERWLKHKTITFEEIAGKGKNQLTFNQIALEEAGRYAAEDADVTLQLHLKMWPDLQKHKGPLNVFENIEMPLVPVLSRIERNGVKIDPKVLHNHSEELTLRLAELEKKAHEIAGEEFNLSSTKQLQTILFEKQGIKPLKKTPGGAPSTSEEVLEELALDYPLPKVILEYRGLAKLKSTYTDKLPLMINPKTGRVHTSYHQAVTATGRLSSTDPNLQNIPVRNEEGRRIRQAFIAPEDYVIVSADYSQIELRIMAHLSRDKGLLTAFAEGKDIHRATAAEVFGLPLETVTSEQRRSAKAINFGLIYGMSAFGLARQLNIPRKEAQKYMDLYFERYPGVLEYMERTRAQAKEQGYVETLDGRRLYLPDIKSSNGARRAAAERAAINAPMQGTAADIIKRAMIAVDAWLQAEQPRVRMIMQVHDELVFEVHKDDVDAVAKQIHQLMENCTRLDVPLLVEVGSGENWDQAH

For “maleimido-methylcyclohexane-dUTP [MCC-dUTP]”, the “number of contiguous modified bases added to the 3' terminus” value in test [1] is “up to 5 bases”. In test [2], the “incorporation into DNA by Taq DNA polymerase in primer extension” value is “essentially the same degree of incorporation as PDP-dUTP”. The “accepted as substrate by Klenow polymerase in primer extension” value in test [3] is “accepted as a substrate”. The “incorporation into DNA by T7 DNA polymerase in primer extension” value in test [4] is reported as “essentially the same degree of incorporation as PDP-dUTP”. The “accepted as substrate by exonuclease free Klenow polymerase in primer extension” value in test [5] is reported as “accepted as a substrate”.
Turning to “pyridine dithiopropanoate-dUTP [PDP-dUTP]”, the “substrate for TdT in oligonucleotide tailing / 3'-end labeling” value in test [1] (Procedure 1, 20% denaturing PAGE, autoradiography) is listed as “substrate for TdT”. The “number of contiguous modified bases added to the 3' terminus” value in test [1] is on record as “up to 10 bases”. Further, the “incorporation into DNA by Taq DNA polymerase in primer extension” value in test [2] is listed as “incorporated into DNA; also recorded: incorporated at several sites”. For the same substance, in test [4] (smaller fragments observed in T7 reaction), the “substrate efficiency with T7 polymerase relative to Taq polymerase” value is reported as “reduced substrate efficiency with T7 polymerase compared to Taq polymerase”. In test [4], the “incorporation into DNA by T7 DNA polymerase in primer extension” value is reported as “incorporated into DNA”.
